≈ marks a conversion by molar mass, not a printed value.
Assays:
human ApoA-I promoter [1] = experiment: ApoA-I promoter induction in HepG2 liver cells (pAI.474-Luc luciferase reporter); assay type: cell-based; conditions: average values at 15 μM, 48 hours incubation
Procedure: This study determined whether compounds of the invention have an effect on ApoA-I promoter activity expression in HepG2 cells, a liver cell line. Cells were grown under conditions recommended by the ATCC and summarized by Wong.
The promoter region of the gene encoding human ApoA-I was isolated and ligated upstream the structure gene of firefly luciferase to construct a reporter plasmid (pAI.474-Luc). The reporter plasmid, along with pRSV-β-galactosidase (as a control for transfection efficiency), were co-transfected into HepG2 cells. The cells were then incubated in an MEM selection media containing 20% fetal calf serum supplemented with G418 (final concentration: 0.5 mg/mL, Gibco) to give established strains that stably express from the reporter gene. The strains were seeded to a 6-well culture plates and incubated for 48 hours at 37° C. under 5% carbon dioxide. Cells were starved for 24 hrs in MEM selection media containing 0.5% FBS. Then, a solution of the compounds of the invention in DMSO (or other appropriate solvent) was added to the wells at a final concentration of 0 to 100 μM in MEM selection media containing 0.5% FBS.
(§1) After further incubation for 48 hours, the cells were harvested and lysed using Reporter Lysis Buffer (PROMEGA E3971), and 50 μL of luciferase assay reagent (PROMEGA E4550 Luciferase Reporter 1000 assay system) were added to measure luciferase activity with a luminometer (Fluoroskan Ascent FL from Thermo electron Corporation). Luciferase activity was normalized to lysate protein concentrations, measured using Bradford Reagent (Biorad Protein Assay reagent Cat #500-0006).

human ApoA-I promoter [2] = experiment: ApoA-I promoter induction in Caco-2 intestinal cells (pAI.474-Luc luciferase reporter); assay type: cell-based; conditions: Caco-2 cells, 15 μM, 48 hours incubation, luciferase activity vs control samples
Procedure: To examine the effects of compounds of the invention to increase ApoA-I expression, Caco-2 cells, an intestinal cell line derived from human epithelial intestinal cells, were grown under conditions recommended by the ATCC and summarized in United States Patent Application Publication No. 20040033480 (“Wong”), incorporated herein by reference.
Briefly, the promoter region of the gene encoding human ApoA-I was isolated and ligated upstream of the firefly luciferase gene to construct the reporter plasmid pAI.474-Luc. This reporter plasmid and pRSV-β-galactosidase (as a control for transfection efficiency) were co-transfected to Caco-2 cells. The Caco-2 cells were then incubated in a MEM selection media containing 20% fetal calf serum supplemented with G418 (final concentration: 0.5 mg/mL, Gibco) to give established strains that stably express from the reporter gene. The strains were seeded in 6-well culture plates and incubated for 48 hours at 37° C. under 5% carbon dioxide. Cells were starved for 24 hrs in MEM selection media containing 0.5% FBS. Then, a solution of a compound of the invention in DMSO or other appropriate solvent was added to the wells at a final concentration of 0 to 100 μM in MEM selection media containing 0.5% FBS.
as §1, with “system) was” for “system) were”, “Reagent (BioRad” for “Reagent (Biorad”, “#500-0006). The luciferase activity of cells treated with various concentrations of test compounds was compared to that of solvent control sample (i.e., solvent without any compound of the present invention added) and untreated control sample.” for “#500-0006).”

Caco-2 permeability = assay type: in vitro ADME, human; conditions: human, Caco-2
From the text: The Caco-2 cell drug transport model is widely used for screening compounds in drug discovery to assess intestinal transport and predict absorption rates.

[3] = Solubility analysis in PBS (HPLC-UV); assay type: physicochemical; conditions: aqueous buffer, thermodynamic from solid; 1 mg in 1 mL PBS, sonicated 1 hour, 25° C. for 3 hrs
Procedure: Samples were then centrifuged at 14,000 rpm for 6 minutes at room temperature. The supernatant was diluted with acetonitrile and was removed for analysis. Analysis was performed using HPLC-UV with 7-point standard curve to determine the concentration. The average concentration calculated is regarded as the solubility (μM).

hApoA-I transgenic mice = experiment: hApoA-I transgenic mice, oral gavage for 14 days; assay type: in vivo; conditions: Experiment A
From the text: To test whether the efficacy of compounds of the invention observed in vitro extended to an in vivo model, transgenic mice carrying multiple copies of the human ApoA-I gene (C57BI/6-tgn(apoa1)1 rub, Jackson Laboratory, Bar Harbor, Me.) were exposed to representative compounds of the invention. The exogenous human ApoA-I gene in these mice enables them to express the human ApoA-I protein under the control of this promoter.
Seven to eight week old male mice, transgenic for human ApoA-I were housed five per cage (10″×20″×8″ with aspen chip bedding) with pelleted Rodent chow [Purina 5001] and water available at all times. After an acclimation period of 1 week, animals were individually identified by numbering on tail and weighed. Mice were pre bled via the retro-orbital plexus, and 150 μl of blood was collected in 1.5 ml Eppendorf tube containing 1 μl of heparin and chilled on ice. Plasma was collected after centrifuging the whole blood at 14000 rpm [TOMY high speed micro-refrigerated centrifuge NTX-150] for 10 minutes at 4° C. and frozen at −80° C. Plasma was analyzed for: human ApoA-I by a human ApoA-I enzyme-linked Immunoassay [Direct Sandwich ELISA Calbiochem Cat#178422, Calbiochem Cat#178452, lot #B9076, Calbiochem Cat #178470 conjugated to Horse Radish Peroxidase (Cedarlane Cat#80220)]; total cholesterol [Ponte scientific reagents: # C7509-STD, #L7580-18, # C7510]; and triglyceride [Pointe Scientific Reagents: # 7532-STD, # L7580-18, #7532]. All samples were measured in triplicates and expressed as mg/dl. Mice were grouped based on the above plasma parameters and having an average body weight of 25 gm.
Two days following pre-bleed, mice were dosed by oral gavage daily for 14 days using a 20 gauge, 11/2″ curved disposable feeding needle [Popper & Sons]; when BID, mice were gavaged morning and afternoon (8 am and 5 pm); when SID mice were gavaged in morning (8 am). Compounds were prepared each day in vehicle. Test article(s), a positive control fenofibrate, and vehicle were dosed at volume of 5 mL/kg of body weight as a suspension (0.1 mL/20 g mouse). Fenofibrate was obtained commercially [SIGMA #F 6020]. Mice weights were recorded on day 1, 4, 7, 10, 12, and 15. On day 15, mice were weighed and fasted for 4 hours, sacrificed by inhalation of CO2 and blood was obtained via cardiac puncture (0.7-1.0 ml). Plasma was collected and frozen at −80° C. Samples were assayed for ApoA-I, total cholesterol, triglyceride and HDL-C by HPLC [Polaris 200 with an auto sampler Prostar 410 from Varian on a Superose 6 10/30 column from Amersham]. Samples were sent for NMR analysis [LipoScience] to identify particle size and subclass for lipoproteins. During necropsy, liver, brown fat, and the whole of small and large intestines were collected, cleaned with cold PBS and frozen at −80° C. for further analysis of compound levels. Variation between studies, in ApoA-I changes, was observed. Therefore, a relative comparison between individual(s) in the study groups was used.
4′-hydroxyflavone (10 mg/kg of body weight), 4-(4-oxo-4H-chromen-2-yl)phenyl nicotinate (Example 71) (10 mg/kg of body weight) and fenofibrate (100 mg/kg of body weight) were BID administered to hApoA-I transgenic mice daily for fourteen days by oral gavage in 0.5% Methylcellulose (w/v)/1% Tween 80 (w/v). Plasma was assayed for ApoA-I (FIG. 3A), HDL cholesterol and total cholesterol (FIG. 3B) and percent weight gain (FIG. 3C).
4′-hydroxyflavone (3 mg/kg of body weight), 4′-hydroxyflavone (10 mg/kg of body weight), 4′-hydroxyflavone (30 mg/kg of body weight), 2-(4-Hydroxy-phenyl)-pyrano[2,3-b]pyridin-4-one (10 mg/kg of body weight), and fenofibrate (100 mg/kg of body weight) were BID administered to hApoA-I transgenic mice daily for fourteen days by oral gavage in 0.5% methylcellulose (w/v)/1% Tween 80 (w/v). In this experiment plasma was assayed for ApoA-I. […]

SMILES | ApoA-I Promoter Induction (human ApoA-I promoter [1]) | ApoA-I Promoter Induction (human ApoA-I promoter [2]) | Papp (Caco-2 permeability) | melting point | solubility at 3 h [3] | plasma ApoA-I, net % change over vehicle (hApoA-I transgenic mice; 10 mg/kg BID oral gavage, 14 days, 0.5% methylcellulose/1% Tween 80) | liver weight gain normalized to body weight, compared to vehicle (hApoA-I transgenic mice; 10 mg/kg BID, day 15, male mice)
O=c1c(O)c(-c2ccc(O)c(O)c2)oc2cc(O)cc(O)c12 [3,5,7-trihydroxy-2-(3,4-dihydroxyphenyl)-4H-chromen-4-one, reference compound] | increased |  |  |  |  |  | 
O=c1cc(-c2ccc(O)cc2)oc2cccc(O)c12 [4′,5-dihydroxyflavone] | increased |  |  |  |  |  | 
O=C1CC(c2ccc(O)cc2)Oc2cc(O)cc(O)c21 (stereo not drawn) [5,7-Dihydroxy-2-(4-hydroxyphenyl)-chroman-4-one] | increased | increased |  |  |  |  | 
Nc1cc(O)ccc1-c1cc(=O)c2ccccc2o1 [Example 3, 2-(2-amino-4-hydroxy-phenyl)-chromen-4-one] | increased |  | 7.42 ×10⁻⁶ cm/s |  |  |  | 
O=c1cc(-c2ccc(O)cc2)oc2ccc(CO)cc12 [Example 11, 6-Hydroxymethyl-2-(4-hydroxyphenyl)chromen-4-one] | increased |  |  | 246 to 247 °C |  |  | 
O=c1cc(-c2ccc(O)c(F)c2)oc2ccccc12 [Example 12, 2-(3-Fluoro-4-hydroxyphenyl)chromen-4-one] | increased |  |  | 275 to 276 °C |  |  | 
O=c1cc(-c2ccc(CO)cc2)oc2ccc(O)cc12 [Example 14, 6-Hydroxy-2-(4-hydroxymethylphenyl)chromen-4-one] | increased |  |  | 262 to 265 °C |  |  | 
O=c1cc(-c2ccc(O)c(F)c2)oc2ccc(CO)cc12 [Example 33, 2-(3-fluoro-4-hydroxyphenyl)-6-(hydroxymethyl)-4H-chromen-4-one] |  | increased |  | 256 to 258 °C | 51.4 µM (≈ 14.7 µg/mL) |  | 
O=c1cc(-c2ccc(O)c(Cl)c2)oc2ncccc12 [Example 41, 2-(3-chloro-4-hydroxyphenyl)-4H-pyrano[2,3-b]pyridine-4-one] |  | increased | 1.76 ×10⁻⁶ cm/s | 259 to 262 °C | 84.4 µM (≈ 23.1 µg/mL) |  | 
COc1cc(-c2cc(=O)c3cccnc3o2)ccc1O [Example 43, 2-(4-hydroxy-3-methoxyphenyl)-4H-pyrano[2,3-b]pyridine-4-one] |  | increased |  | 253 to 255 °C | 47.1 µM (≈ 12.7 µg/mL) |  | 
O=c1cc(-c2ccc(OCCO)cc2)oc2ncccc12 [Example 45, 2-(4-(2-hydroxyethoxy)phenyl)-4H-pyrano[2,3-b]pyridine-4-one] |  | increased |  | 157 to 159 °C | 334 µM (≈ 94.6 µg/mL) |  | 
Oc1ccc(-c2cc3ccccc3cn2)cc1 [Example 54, 4-isoquinolin-3-yl-phenol] | increased | increased | 4.11 ×10⁻⁶ cm/s | 218 to 219 °C |  |  | 
COc1cc(OC)c2c(=O)[nH]c(-c3ccc(O)cc3)cc2c1 [Example 60, 3-(4-Hydroxyphenyl)-6,8-dimethoxyisoquinolin-1(2H)-one] |  | increased |  | 245 to 247 °C | 58.2 µM (≈ 17.3 µg/mL) |  | 
O=C(Oc1ccc(-c2cc(=O)c3ccccc3o2)cc1)c1cccnc1 [Example 71, 4-(4-oxo-4H-chromen-2-yl)phenyl nicotinate] | increased | increased |  |  |  | 12.82% | minor changes
O=C(Oc1ccc(C2CC(=O)c3c(OC(=O)c4cccnc4)cc(OC(=O)c4cccnc4)cc3O2)cc1)c1cccnc1 (stereo not drawn) [Example 73, 2-(4-(Nicotinoyloxy)phenyl)-4-oxochroman-5,7-diyl dinicotinate] | no increase |  |  |  |  |  | 
O=C(Oc1ccc(-c2cc(=O)c3c(OC(=O)c4cccnc4)cc(OC(=O)c4cccnc4)cc3o2)cc1)c1cccnc1 [Example 74, 2-(4-Nicotinoyloxy)phenyl)-oxo-4H-chromene-5,7-diyl dinicotinate] | increased | increased |  |  |  |  | 
O=c1cc(-c2ccc(O)c(CO)c2)oc2ncccc12 [Example 81, 2-(4-hydroxy-3-(hydroxymethyl)phenyl)-4H-pyrano[2,3-b]pyridin-4-one] |  | increased |  | 226 to 227 °C | 48.5 µM (≈ 13.1 µg/mL) |  | 
CNc1nc(-c2ccc(O)cc2)cc2cc(OC)cc(OC)c12.Cl [Example 82, 4-(6,8-dimethoxy-1-(methylamino)isoquinolin-3-yl)phenol hydrochloride] |  | increased |  | 250 to 253 °C | 66.8 µM |  | 

Source: patent publication US8093273B2, “Flavanoids and isoflavanoids for the prevention and treatment of cardiovascular diseases” (Resverlogix Corp., priority 2004, dated 2012)
